The values that follow come from ChEMBL document CHEMBL1157740, “The discovery of novel tartrate-based TNF-alpha converting enzyme (TACE) inhibitors” (Bioorg Med Chem Lett, 2010).

Experiment [1] addresses Disintegrin and metalloproteinase domain-containing protein 17 (Homo sapiens, UniProt P78536). In words: Inhibition of TACE. To be noted: for pKi: read-out: Ki.
The target of experiment [2] is T1, Disintegrin and metalloproteinase domain-containing protein 10 (Homo sapiens, UniProt O14672).
T1 sequence (O14672 whole entry): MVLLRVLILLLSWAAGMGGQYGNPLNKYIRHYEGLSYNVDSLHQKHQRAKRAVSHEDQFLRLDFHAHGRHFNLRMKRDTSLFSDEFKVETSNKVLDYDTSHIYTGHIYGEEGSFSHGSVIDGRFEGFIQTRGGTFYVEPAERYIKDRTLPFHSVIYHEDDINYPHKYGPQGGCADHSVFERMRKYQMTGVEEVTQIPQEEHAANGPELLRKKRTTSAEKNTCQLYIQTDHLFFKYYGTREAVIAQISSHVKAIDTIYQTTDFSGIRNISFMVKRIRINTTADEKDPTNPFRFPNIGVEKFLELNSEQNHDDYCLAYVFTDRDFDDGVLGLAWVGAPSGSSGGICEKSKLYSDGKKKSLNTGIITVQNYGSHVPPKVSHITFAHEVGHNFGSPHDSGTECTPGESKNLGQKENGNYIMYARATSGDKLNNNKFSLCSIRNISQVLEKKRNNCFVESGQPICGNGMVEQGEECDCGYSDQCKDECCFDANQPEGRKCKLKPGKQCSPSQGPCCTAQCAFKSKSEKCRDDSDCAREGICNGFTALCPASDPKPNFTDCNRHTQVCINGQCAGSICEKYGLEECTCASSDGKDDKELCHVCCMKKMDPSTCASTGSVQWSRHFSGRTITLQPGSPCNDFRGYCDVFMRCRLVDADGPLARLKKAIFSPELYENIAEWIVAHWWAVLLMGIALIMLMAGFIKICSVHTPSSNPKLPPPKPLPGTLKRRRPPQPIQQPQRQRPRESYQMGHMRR
Put plainly: Inhibition of ADAM10.

Another experiment concerns the target T2, Interstitial collagenase (Homo sapiens, UniProt P03956).
T2 sequence (P03956 whole entry): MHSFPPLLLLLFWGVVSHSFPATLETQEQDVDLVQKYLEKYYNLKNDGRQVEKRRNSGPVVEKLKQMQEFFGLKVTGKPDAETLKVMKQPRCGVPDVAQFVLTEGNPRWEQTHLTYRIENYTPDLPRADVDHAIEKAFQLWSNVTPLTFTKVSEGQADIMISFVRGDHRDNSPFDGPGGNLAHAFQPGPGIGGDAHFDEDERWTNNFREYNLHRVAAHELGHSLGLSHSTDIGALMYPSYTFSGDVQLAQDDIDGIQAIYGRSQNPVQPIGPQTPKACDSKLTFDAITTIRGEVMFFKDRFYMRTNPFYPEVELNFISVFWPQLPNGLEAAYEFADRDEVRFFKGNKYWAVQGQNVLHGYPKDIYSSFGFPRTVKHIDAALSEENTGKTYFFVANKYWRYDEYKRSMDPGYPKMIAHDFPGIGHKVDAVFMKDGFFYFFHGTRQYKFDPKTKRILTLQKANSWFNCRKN
In words: Inhibition of MMP1.

Experiment [3] concerns the target 72 kDa type IV collagenase (Homo sapiens, UniProt P08253). In words: Inhibition of MMP2.
The target in the next experiment is Stromelysin-1 (Homo sapiens, UniProt P08254). In words: Inhibition of MMP3.
Another experiment has as its target T3, Matrilysin (Homo sapiens, UniProt P09237).
T3 sequence (P09237 whole entry): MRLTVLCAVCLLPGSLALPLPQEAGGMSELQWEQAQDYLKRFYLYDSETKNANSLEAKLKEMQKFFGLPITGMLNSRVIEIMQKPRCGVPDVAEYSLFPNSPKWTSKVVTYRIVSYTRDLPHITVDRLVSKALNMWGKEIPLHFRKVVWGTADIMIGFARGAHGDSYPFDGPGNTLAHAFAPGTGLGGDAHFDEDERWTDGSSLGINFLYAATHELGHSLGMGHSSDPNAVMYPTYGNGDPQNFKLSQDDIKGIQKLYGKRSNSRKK
In words: Inhibition of MMP7.

The target in experiment [4] is Macrophage metalloelastase (Homo sapiens, UniProt P39900). In words: Inhibition of MMP12.
A further experiment addresses Collagenase 3 (Homo sapiens, UniProt P45452). Put plainly: Inhibition of MMP13.
Experiment [5] concerns the target Matrix metalloproteinase-14 (Homo sapiens, UniProt P50281). In words: Inhibition of MMP14.

pKi: −log10 of the molar value.

Sequence of Macrophage metalloelastase (P39900 whole entry): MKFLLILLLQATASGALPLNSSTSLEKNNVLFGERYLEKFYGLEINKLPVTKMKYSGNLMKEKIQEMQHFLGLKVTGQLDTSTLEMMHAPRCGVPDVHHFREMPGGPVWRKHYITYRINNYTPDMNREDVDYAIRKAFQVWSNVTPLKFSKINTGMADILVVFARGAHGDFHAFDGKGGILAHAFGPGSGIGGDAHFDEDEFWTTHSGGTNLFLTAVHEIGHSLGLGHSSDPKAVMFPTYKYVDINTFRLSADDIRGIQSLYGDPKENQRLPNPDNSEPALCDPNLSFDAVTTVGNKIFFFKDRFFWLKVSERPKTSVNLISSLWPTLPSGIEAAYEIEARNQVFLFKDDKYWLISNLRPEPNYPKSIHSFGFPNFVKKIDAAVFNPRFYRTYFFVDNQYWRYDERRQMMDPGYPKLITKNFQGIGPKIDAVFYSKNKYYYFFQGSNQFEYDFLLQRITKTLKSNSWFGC
Sequence of 72 kDa type IV collagenase (P08253 whole entry): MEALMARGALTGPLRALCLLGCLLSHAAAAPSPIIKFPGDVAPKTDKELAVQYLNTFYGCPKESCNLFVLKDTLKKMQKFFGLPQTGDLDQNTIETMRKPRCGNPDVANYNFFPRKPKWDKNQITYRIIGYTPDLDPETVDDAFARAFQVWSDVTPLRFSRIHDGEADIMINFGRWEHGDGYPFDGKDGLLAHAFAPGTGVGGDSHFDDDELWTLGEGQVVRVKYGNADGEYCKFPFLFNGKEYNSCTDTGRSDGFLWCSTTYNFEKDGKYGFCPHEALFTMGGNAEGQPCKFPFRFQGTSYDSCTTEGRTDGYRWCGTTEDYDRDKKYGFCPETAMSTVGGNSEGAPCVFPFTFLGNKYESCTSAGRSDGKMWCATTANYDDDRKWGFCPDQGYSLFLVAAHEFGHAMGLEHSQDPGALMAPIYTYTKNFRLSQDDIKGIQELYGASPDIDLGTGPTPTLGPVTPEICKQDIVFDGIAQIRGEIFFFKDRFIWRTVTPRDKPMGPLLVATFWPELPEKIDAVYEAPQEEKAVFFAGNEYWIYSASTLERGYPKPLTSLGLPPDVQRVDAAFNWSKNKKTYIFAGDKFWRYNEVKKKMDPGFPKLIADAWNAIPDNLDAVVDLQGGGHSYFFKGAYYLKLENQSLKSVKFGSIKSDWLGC
Sequence of Stromelysin-1 (P08254 whole entry): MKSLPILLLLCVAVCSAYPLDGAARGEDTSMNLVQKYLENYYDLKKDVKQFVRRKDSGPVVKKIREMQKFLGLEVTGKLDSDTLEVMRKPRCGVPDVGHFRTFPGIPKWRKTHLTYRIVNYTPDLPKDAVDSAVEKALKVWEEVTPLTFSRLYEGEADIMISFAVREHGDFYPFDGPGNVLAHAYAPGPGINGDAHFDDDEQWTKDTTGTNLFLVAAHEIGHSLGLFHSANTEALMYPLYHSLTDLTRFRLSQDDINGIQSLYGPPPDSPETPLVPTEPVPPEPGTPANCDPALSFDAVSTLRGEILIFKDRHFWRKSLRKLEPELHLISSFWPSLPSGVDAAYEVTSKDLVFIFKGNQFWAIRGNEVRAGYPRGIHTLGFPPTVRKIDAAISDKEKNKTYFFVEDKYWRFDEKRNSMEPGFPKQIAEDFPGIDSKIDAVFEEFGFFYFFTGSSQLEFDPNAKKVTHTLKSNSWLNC
Sequence of Disintegrin and metalloproteinase domain-containing protein 17 (P78536 whole entry, the tested form may be a part): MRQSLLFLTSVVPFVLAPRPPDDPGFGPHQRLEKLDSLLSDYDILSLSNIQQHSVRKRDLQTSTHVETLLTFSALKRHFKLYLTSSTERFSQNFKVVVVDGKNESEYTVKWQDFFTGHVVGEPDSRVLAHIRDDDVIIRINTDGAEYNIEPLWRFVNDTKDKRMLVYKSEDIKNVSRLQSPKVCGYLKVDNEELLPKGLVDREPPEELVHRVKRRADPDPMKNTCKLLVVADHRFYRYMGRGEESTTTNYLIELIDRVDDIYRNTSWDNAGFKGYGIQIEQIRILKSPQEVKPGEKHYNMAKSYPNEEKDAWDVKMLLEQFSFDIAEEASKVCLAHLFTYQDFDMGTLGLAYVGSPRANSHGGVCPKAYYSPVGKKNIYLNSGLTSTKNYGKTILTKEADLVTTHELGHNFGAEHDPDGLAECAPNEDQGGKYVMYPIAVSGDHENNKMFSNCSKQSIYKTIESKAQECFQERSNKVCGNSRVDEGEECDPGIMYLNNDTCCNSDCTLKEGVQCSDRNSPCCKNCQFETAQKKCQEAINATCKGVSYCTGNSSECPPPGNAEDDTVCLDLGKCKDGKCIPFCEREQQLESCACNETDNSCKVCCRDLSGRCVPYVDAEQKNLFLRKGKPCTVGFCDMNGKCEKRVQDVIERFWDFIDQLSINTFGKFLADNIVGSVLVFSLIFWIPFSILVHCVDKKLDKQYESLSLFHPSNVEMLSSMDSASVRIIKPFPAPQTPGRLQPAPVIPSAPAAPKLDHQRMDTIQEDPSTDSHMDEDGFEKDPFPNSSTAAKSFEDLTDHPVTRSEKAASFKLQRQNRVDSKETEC

For the molecule `O=C(NCCc1cccs1)[C@H](O)CC(=O)N1CCCC1c1cccc(Cl)c1` (some centres undefined), in experiment [1], the Ki result is recorded as “Not Active”.

For `O=C(NCCc1cccs1)[C@H](O)[C@@H](O)c1nccs1`, the negative logarithm of the Ki (pKi) in [1] was 5.26.

For `O=C(NCCc1cccs1)[C@H](O)[C@@H](O)C(=O)N1CCCC1c1ccccc1Cl` (some centres undefined), in experiment [1], the pKi was 6.49. With `O=C(NCCc1cccs1)[C@H](O)[C@@H](O)C(=O)N1CCCC1c1cccc(Cl)c1` (some centres undefined), the negative logarithm of the Ki (pKi) in experiment [1] was 7.96; in [2], 7.54; on Interstitial collagenase it was under 4.30; in experiment [3] it was 4.48; at Stromelysin-1, 4.77; at Matrilysin, under 4.30. Moreover, the pKi in [4] was under 4.30; on Collagenase 3 it was 4.70; in [5] it was 4.96.

Turning to `Cc1cccc(C2CCCN2C(=O)[C@H](O)[C@@H](O)C(=O)N(C)CCc2cccs2)c1` (some centres undefined), the pKi in [1] is 7.89. For the molecule `COc1cccc(C2CCCN2C(=O)[C@H](O)[C@@H](O)C(=O)N(C)CCc2cccs2)c1` (some centres undefined), the pKi in [1] is 7.48. Same read-out and setting: with `O=C(NCc1cc(CC2C=CC=CC2Cl)cs1)[C@H](O)[C@@H](O)C(=O)N1CCC[C@@H]1c1cccc(Cl)c1` (some centres undefined) the figure was 7.89; with `O=C([C@H](O)[C@@H](O)C(=S)NCc1cc(Cc2ccccc2Cl)cs1)N1CCCC1c1cccc(Cl)c1` (some centres undefined), 5.95; with `C[C@@H](c1ccccc1)N(C)C(=O)[C@H](O)[C@@H](O)C(=O)NCCc1cccs1`, 6.31. The same measure, in the same setting: with `CN(C)c1cccc(C2CCCN2C(=O)[C@H](O)[C@@H](O)C(=O)NCCc2cccs2)c1` (some centres undefined) the figure was 7.39; with `O=C(NCc1cc(Cc2ccccc2)cs1)[C@H](O)[C@@H](O)C(=O)N1CCCC1c1ccc(F)cc1` (some centres undefined), 7.03; with `O=C(NCCc1nc(Cc2ccccc2)cs1)[C@H](O)[C@@H](O)C(=O)N1CCCC1c1ccccc1` (some centres undefined), 7.32.

As for `O=C(NCc1cc2ccccc2o1)[C@H](O)[C@@H](O)C(=O)N1CCCC1c1ccccc1` (some centres undefined), the pKi was 6.80 in [1]; 6.13 in experiment [2]; 4.73 on Interstitial collagenase; 6.52 in experiment [3]; 5.11 on Stromelysin-1; under 4.30 at Matrilysin. The pKi at Collagenase 3 was 6.29; in experiment [5], 6.85. `O=C(NCc1nc(Cc2ccccc2)cs1)[C@H](O)[C@@H](O)C(=O)N1CCCC1c1ccccc1` (some centres undefined): the pKi in experiment [1] is 8.10. Still for that read-out and setting: with `O=C(NCc1nc(Cc2ccccc2)co1)[C@H](O)[C@@H](O)C(=O)N1CCCC1c1ccccc1` (some centres undefined) the figure was 7.66. As for `CN(Cc1ccccc1)C(=O)[C@H](O)[C@@H](O)C(=O)NCCc1cccs1`, in experiment [1], the pKi is 6.12. On the same count and under the same terms, with `CN(CCc1ccccc1)C(=O)[C@H](O)[C@@H](O)C(=O)NCCc1cccs1` the figure was 5.89; with `C[C@H](c1ccccc1)N(C)C(=O)[C@H](O)[C@@H](O)C(=O)NCCc1cccs1`, 6.62. Regarding `O=C(NCCc1cccs1)[C@H](O)[C@@H](O)C(=O)N1CCCCC1c1ccccc1` (some centres undefined), the pKi in experiment [1] was 6.49. Still for that read-out and setting: with `O=C(NCCc1cccs1)[C@H](O)[C@@H](O)C(=O)N1CCC(c2ccccc2)C1` (some centres undefined) the figure was 6.34. Still for that read-out and setting: with `O=C(NCCc1cccs1)[C@H](O)[C@@H](O)C(=O)N1CCN(c2ccccn2)CC1` the figure was 5.60; with `CN(C)C(=O)[C@H](O)[C@@H](O)C(=O)NCCc1cccs1`, 5.89. `CN(C(=O)[C@H](O)[C@@H](O)C(=O)NCCc1cccs1)C1CCCCC1`: the pKi in [1] is 5.85. Regarding `O=C(NCCc1cccs1)[C@H](O)[C@@H](O)C(=O)NCc1ccccc1`, in [1], the Ki entry is “Not Active”.

In the case of `O=C(NCCc1cccs1)[C@H](O)[C@@H](O)C(=O)N1CCC(Cc2ccccc2)CC1`, the pKi in experiment [1] is 5.96. With `O=C(NCCc1cccs1)[C@H](O)[C@@H](O)C(=O)N1CCc2ccccc2C1`, in experiment [1], the pKi was 7.04. As to `O=C(NCCc1cccs1)[C@H](O)[C@@H](O)C(=O)N1CCCC1c1nccs1` (some centres undefined), in experiment [1], the pKi is 6.79. Same read-out and setting: the same measure for `COc1cccc(N2CCN(C(=O)[C@H](O)[C@@H](O)C(=O)NCCc3cccs3)CC2)c1`: 6.40; for `O=C(NCCc1cccs1)[C@H](O)[C@@H](O)C(=O)N1CCCC1c1ccc(Cl)cc1` (some centres undefined): 6.12. As to `CN(Cc1cccnc1)C(=O)[C@H](O)[C@@H](O)C(=O)NCCc1cccs1`, in experiment [1], the pKi is 6.03.

Take `O=C(NCc1ccc(Cc2ccccc2)cc1)[C@H](O)[C@@H](O)C(=O)N1CCCC1c1cccc(Cl)c1` (some centres undefined): in [1], the pKi was 7.15. For the molecule `O=C(C[C@@H](O)C(=O)N1CCCC1c1cccc(Cl)c1)NCCc1cccs1` (some centres undefined), the Ki result in experiment [1] is on record as “Not Active”.

For the molecule `O=C(NCc1cc(Cc2ccccc2Cl)cs1)[C@H](O)[C@@H](O)C(=S)N1CCCC1c1cccc(Cl)c1` (some centres undefined), in [1], the pKi was 5.82.

Regarding `O=C(NCCc1cc(Cc2ccccc2)cs1)[C@H](O)[C@@H](O)C(=O)N1CCCC1c1ccccc1` (some centres undefined), the pKi in experiment [1] was 7.18; in experiment [2], under 4.60; on Interstitial collagenase it was under 4.30; in experiment [3] it was under 4.30; on Matrilysin, 5.22; in experiment [4] it was 6.15. Besides, the values for the pKi (on Collagenase 3; in experiment [5]) were 5.44 and under 4.52, respectively. As for `Cn1ccnc1[C@H](O)[C@@H](O)C(=O)NCCc1cccs1`, the pKi in experiment [1] is 4.97. As for `O=C(NCCc1cccs1)[C@H](O)[C@@H](O)C(=O)N1CCC[C@@H]1c1ccccc1`, the pKi in experiment [1] is 7.70.

Take `O=C(NCCc1cccs1)[C@H](O)[C@@H](O)C(=O)N1Cc2ccccc2C1`: the pKi in [1] is 7.18. On to `CN(CCc1cccs1)C(=O)[C@H](O)[C@@H](O)C(=O)N1CCN(c2ccccc2Cl)CC1`, for which the Ki entry in experiment [1] was “Not Active”. `CN(Cc1ccco1)C(=O)[C@H](O)[C@@H](O)C(=O)NCCc1cccs1`: the pKi in experiment [1] was 5.99. Regarding `O=C(NCCc1cccs1)[C@H](O)[C@@H](O)C(=O)N1CCCC1c1ccccn1` (some centres undefined), the pKi in experiment [1] is 6.73.

Turning to `O=C(NCCc1cccs1)[C@H](O)[C@@H](O)C(=O)N1CCN(c2ccccc2Cl)CC1`, the pKi in [1] is 6.40; in [2], 6.40; on Interstitial collagenase it was under 4.05; in experiment [3] it was under 4.52; at Stromelysin-1, under 4.30; on Matrilysin, under 4.22. Moreover, the pKi in experiment [4] is 5.05; at Collagenase 3, 5.15; in experiment [5], under 4.40. On to `O=C(NCc1ccccc1)[C@H](O)[C@@H](O)C(=O)N1CCCC1c1cccc(Cl)c1` (some centres undefined), for which the pKi in experiment [1] is 5.84. Still for that read-out and setting: with `O=C(NCCc1nc(Cc2ccccc2)co1)[C@H](O)[C@@H](O)C(=O)N1CCCC1c1ccccc1` (some centres undefined) the figure was 6.34.

Consider `O=C(NCCc1cccs1)[C@H](O)[C@@H](O)C(=O)N1CCCC1c1ccccc1` (some centres undefined), for which the pKi in experiment [1] was 7.02.

Broadly, the pKi is −log10 of the Ki, conventionally taken in molar units.
